Experimental data from US10308639B2, “Phosphatidylinositol 3-kinase inhibitors” (Gilead Sciences, Inc., priority 2014, dated 2019).

Tests used:
Format in all cases: biochemical
[1] = molecular target: T1, PI3Kβ (Homo sapiens, UniProt P42338); assay: TR-FRET enzymatic activity assay, PI3Kβ; details: Table 2a; same assay
T1 construct: made in house

[2] = molecular target: T2, PI3Kδ (Homo sapiens, UniProt O00329); assay: TR-FRET enzymatic activity assay, PI3Kδ; details: Table 2a; same assay
T2 construct: made in house

[3] = molecular target: T3, PI3Kγ (Homo sapiens, UniProt P48736); assay: TR-FRET enzymatic activity assay, PI3Kγ; details: Table 2a; same assay; read-out: PI3Kγ IC50
T3 construct: made in house
Summary of the method: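 TR-FRET read-out of enzyme activity, run separately for each PI3K isoform.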

T3 sequence (P48736 whole entry): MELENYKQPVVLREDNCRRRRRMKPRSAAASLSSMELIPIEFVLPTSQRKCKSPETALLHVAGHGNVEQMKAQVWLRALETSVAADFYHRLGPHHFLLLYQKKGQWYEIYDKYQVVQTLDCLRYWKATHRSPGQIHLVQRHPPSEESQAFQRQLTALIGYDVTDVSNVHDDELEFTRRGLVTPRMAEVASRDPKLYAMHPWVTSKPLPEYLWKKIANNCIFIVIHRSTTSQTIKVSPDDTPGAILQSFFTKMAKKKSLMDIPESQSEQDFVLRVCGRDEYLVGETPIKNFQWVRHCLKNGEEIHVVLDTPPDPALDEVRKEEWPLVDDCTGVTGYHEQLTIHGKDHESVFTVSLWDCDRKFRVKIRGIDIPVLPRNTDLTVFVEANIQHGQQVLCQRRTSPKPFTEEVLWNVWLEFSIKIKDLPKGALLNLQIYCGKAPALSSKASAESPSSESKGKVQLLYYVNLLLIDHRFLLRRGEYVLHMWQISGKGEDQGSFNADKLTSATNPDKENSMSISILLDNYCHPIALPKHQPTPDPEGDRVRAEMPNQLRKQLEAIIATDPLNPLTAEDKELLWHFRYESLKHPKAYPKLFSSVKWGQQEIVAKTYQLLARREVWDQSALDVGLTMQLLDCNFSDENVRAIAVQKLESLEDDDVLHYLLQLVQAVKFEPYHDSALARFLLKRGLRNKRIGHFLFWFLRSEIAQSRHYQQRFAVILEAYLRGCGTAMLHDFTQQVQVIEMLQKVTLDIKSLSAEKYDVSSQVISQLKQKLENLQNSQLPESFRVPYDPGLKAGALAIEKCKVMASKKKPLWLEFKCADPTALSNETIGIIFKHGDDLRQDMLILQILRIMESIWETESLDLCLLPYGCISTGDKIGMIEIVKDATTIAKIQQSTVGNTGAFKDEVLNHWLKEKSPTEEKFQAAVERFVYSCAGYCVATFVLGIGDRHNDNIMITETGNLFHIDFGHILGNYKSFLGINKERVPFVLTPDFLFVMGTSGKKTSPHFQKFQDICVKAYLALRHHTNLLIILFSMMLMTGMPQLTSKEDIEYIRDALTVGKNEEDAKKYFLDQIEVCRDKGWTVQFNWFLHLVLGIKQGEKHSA
T1 sequence (P42338 whole entry): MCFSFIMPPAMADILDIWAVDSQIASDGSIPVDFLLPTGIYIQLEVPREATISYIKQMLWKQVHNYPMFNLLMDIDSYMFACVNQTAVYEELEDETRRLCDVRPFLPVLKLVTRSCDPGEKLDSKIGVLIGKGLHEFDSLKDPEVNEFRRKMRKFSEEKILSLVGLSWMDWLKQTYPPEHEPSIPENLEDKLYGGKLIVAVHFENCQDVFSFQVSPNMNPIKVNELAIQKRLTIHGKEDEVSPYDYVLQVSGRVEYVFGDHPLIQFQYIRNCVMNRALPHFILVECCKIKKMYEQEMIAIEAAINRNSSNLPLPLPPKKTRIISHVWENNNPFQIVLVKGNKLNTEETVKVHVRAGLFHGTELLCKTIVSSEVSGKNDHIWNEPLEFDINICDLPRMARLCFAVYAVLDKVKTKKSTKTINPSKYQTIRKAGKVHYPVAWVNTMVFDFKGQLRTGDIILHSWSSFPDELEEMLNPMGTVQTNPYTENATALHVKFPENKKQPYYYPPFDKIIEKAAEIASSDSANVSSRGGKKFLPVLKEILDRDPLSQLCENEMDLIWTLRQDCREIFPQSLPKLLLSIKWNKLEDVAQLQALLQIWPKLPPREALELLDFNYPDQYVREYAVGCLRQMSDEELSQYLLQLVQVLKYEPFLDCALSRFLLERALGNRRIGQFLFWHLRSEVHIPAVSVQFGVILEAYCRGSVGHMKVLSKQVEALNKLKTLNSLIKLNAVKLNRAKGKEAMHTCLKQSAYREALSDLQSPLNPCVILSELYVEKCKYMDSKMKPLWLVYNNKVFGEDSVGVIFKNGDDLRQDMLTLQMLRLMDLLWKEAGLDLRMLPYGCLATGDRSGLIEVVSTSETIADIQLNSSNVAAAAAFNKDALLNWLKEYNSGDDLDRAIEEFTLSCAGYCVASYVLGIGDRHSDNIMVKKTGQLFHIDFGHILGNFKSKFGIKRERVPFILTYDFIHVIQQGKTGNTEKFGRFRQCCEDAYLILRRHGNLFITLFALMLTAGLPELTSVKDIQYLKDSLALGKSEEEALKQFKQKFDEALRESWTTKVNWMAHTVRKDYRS
T1 sequence (P27986 whole entry partner): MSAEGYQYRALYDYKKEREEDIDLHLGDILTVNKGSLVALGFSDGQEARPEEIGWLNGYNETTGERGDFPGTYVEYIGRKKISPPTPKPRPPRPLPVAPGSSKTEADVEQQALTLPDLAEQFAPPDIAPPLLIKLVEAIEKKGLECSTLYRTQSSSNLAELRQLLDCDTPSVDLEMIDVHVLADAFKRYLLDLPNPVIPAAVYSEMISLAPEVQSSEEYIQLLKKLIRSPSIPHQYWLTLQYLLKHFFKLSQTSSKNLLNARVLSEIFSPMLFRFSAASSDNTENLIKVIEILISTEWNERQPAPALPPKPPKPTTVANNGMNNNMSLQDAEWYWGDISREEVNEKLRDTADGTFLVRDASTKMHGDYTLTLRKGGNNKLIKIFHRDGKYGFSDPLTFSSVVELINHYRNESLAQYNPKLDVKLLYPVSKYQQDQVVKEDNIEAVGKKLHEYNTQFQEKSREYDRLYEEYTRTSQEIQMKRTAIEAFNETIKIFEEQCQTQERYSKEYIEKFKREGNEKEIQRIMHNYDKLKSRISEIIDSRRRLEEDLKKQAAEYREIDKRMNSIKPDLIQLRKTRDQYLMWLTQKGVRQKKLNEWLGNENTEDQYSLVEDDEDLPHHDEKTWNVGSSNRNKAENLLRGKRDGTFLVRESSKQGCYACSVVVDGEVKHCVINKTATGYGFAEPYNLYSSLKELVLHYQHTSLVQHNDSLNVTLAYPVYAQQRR
T2 sequence (O00329 whole entry): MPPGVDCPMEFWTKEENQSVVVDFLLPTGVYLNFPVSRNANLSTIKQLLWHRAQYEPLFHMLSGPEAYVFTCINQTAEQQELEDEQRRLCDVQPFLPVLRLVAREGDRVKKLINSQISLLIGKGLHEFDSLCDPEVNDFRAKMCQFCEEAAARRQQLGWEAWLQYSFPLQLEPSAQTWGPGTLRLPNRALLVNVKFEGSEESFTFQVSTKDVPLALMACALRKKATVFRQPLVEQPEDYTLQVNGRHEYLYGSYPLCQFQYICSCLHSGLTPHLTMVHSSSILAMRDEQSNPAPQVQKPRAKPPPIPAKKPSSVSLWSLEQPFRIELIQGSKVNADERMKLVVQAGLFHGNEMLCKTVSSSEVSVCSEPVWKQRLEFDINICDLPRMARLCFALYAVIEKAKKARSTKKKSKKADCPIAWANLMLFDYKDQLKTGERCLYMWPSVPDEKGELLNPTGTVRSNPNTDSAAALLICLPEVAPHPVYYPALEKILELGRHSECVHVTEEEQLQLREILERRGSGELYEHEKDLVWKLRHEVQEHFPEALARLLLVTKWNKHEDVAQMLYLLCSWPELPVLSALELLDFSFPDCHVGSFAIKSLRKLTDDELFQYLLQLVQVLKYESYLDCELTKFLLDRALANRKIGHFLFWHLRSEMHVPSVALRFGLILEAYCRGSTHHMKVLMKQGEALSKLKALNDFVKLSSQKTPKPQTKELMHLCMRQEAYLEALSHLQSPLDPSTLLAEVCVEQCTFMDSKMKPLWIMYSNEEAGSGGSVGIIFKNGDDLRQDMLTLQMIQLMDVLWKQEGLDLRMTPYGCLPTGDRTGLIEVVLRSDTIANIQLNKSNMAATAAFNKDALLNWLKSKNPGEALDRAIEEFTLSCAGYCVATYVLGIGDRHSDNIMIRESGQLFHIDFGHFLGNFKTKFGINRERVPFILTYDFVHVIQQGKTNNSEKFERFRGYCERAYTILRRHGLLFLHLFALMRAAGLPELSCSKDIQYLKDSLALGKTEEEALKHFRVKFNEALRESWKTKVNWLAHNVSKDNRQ
T2 sequence (P27986 whole entry partner): as the sequence (P27986 whole entry partner) above

IC50 [1] [nM] | IC50 [2] [nM] | IC50 [3] [nM] | Compound
9 | 4 | 4000 | C[C@H](Nc1nc(N)nc(C(F)F)c1C#N)c1nc2c(Cl)cccc2c(=O)n1-c1cc[nH]n1 [Compound 188, (S)-2-amino-4-((1-(8-chloro-4-oxo-3-(1H-pyrazol-3-yl)-3,4-dihydroquinazolin-2-yl)ethyl)amino)-6-(difluoromethyl)pyrimidine-5-carbonitrile]
2000 | 130 | > 10000 | N#Cc1c(C(F)F)nc(N)nc1N1CCC[C@H]1c1nc2cccc(Cl)c2c(=O)n1-c1cc[nH]n1 [Compound 189, (S)-2-amino-4-(2-(5-chloro-4-oxo-3-(1H-pyrazol-3-yl)-3,4-dihydroquinazolin-2-yl)pyrrolidin-1-yl)-6-(difluoromethyl)pyrimidine-5-carbonitrile]
31 | 8 | 9900 | C[C@H](Nc1nc(N)nc(C(F)F)c1C#N)c1nc2c(Cl)ccc(Cl)c2c(=O)n1-c1cc[nH]n1 [Compound 190, (S)-2-amino-4-((1-(5,8-dichloro-4-oxo-3-(1H-pyrazol-3-yl)-3,4-dihydroquinazolin-2-yl)ethyl)amino)-6-(difluoromethyl)pyrimidine-5-carbonitrile]
62 | 21 | 4700 | C[C@H](Nc1nc(N)nc(C(F)F)c1C#N)c1nc2c(F)ccc(F)c2c(=O)n1-c1cc[nH]n1 [Compound 192, (S)-2-amino-4-((1-(5,8-difluoro-4-oxo-3-(1H-pyrazol-3-yl)-3,4-dihydroquinazolin-2-yl)ethyl)amino)-6-(difluoromethyl)pyrimidine-5-carbonitrile]
23 | 20 | 2200 | N#Cc1c(N[C@H](c2nc3c(F)ccc(Cl)c3c(=O)n2-c2cc[nH]n2)C2CC2)nc(N)nc1C(F)F [Compound 194, (S)-2-amino-4-(((5-chloro-8-fluoro-4-oxo-3-(1H-pyrazol-3-yl)-3,4-dihydroquinazolin-2-yl)(cyclopropyl)methyl)amino)-6-(difluoromethyl)pyrimidine-5-carbonitrile]
42 | 24 | 3800 | N#Cc1c(N[C@H](c2nc3c(F)cc(F)cc3c(=O)n2-c2cc[nH]n2)C2CC2)nc(N)nc1C(F)F [Compound 195, (S)-2-amino-4-((cyclopropyl(6,8-difluoro-4-oxo-3-(1H-pyrazol-3-yl)-3,4-dihydroquinazolin-2-yl)methyl)amino)-6-(difluoromethyl)pyrimidine-5-carbonitrile]
19 | 19 | 6900 | N#Cc1c(N[C@H](c2nc3c(Cl)cccc3c(=O)n2-c2cc[nH]n2)C2CC2)nc(N)nc1C(F)F [Compound 196, (S)-2-amino-4-(((8-chloro-4-oxo-3-(1H-pyrazol-3-yl)-3,4-dihydroquinazolin-2-yl)(cyclopropyl)methyl)amino)-6-(difluoromethyl)pyrimidine-5-carbonitrile]
700 | 540 | > 10000 | C[C@H](Nc1nc(C(F)F)nc(N)c1C#N)c1nc2cccc(Cl)c2c(=O)n1-c1cc[nH]n1 [Compound 197, (S)-4-amino-6-((1-(5-chloro-4-oxo-3-(1H-pyrazol-3-yl)-3,4-dihydroquinazolin-2-yl)ethyl)amino)-2-(difluoromethyl)pyrimidine-5-carbonitrile]
580 | 830 | > 10000 | C[C@H](Nc1nc(C(F)F)nc(N)c1C#N)c1nc2c(Cl)cc(F)cc2c(=O)n1-c1cc[nH]n1 [Compound 198, (S)-4-amino-6-((1-(8-chloro-6-fluoro-4-oxo-3-(1H-pyrazol-3-yl)-3,4-dihydroquinazolin-2-yl)ethyl)amino)-2-(difluoromethyl)pyrimidine-5-carbonitrile]
280 | 160 | > 10000 | C[C@H](Nc1nc(N)nc(N)c1Cl)c1nc2c(C(F)F)cccc2c(=O)n1-c1cc[nH]n1 [Compound 200, (S)-2-(1-((2,6-diamino-5-chloropyrimidin-4-yl)amino)ethyl)-8-(difluoromethyl)-3-(1H-pyrazol-3-yl)quinazolin-4(3H)-one]

Continued, compound first:

Compound | IC50 [1] [nM] | IC50 [2] [nM] | IC50 [3] [nM]
C[C@H](Nc1nc(N)nc(C(F)F)c1C#N)c1nc2cccc(C(F)(F)F)c2c(=O)n1-c1cc[nH]n1 [Compound 178, (S)-2-amino-4-(difluoromethyl)-6-((1-(4-oxo-3-(1H-pyrazol-3-yl)-5-(trifluoromethyl)-3,4-dihydroquinazolin-2-yl)ethyl)amino)pyrimidine-5-carbonitrile] | 34 | 23 | 2240
C[C@H](Nc1nc(N)nc(C(F)F)c1C#N)c1nc2cccc(C(F)F)c2c(=O)n1-c1cn[nH]c1 [Compound 179, (S)-2-amino-4-(difluoromethyl)-6-((1-(5-(difluoromethyl)-4-oxo-3-(1H-pyrazol-4-yl)-3,4-dihydroquinazolin-2-yl)ethyl)amino)pyrimidine-5-carbonitrile] | 78 | 27 | 950
C[C@@H](Nc1nc(N)nc(N)c1Cl)c1nc2cccc(C(F)F)c2c(=O)n1-c1cc[nH]n1 [Compound 181, (R)-2-(1-((2,6-diamino-5-chloropyrimidin-4-yl)amino)ethyl)-5-(difluoromethyl)-3-(1H-pyrazol-3-yl)quinazolin-4(3H)-one] | 65 | 77 | > 10000
C[C@@H](Nc1nc(N)nc(N)c1C#N)c1nc2cccc(C(F)F)c2c(=O)n1-c1cc[nH]n1 [Compound 182, (R)-2,4-diamino-6-((1-(5-(difluoromethyl)-4-oxo-3-(1H-pyrazol-3-yl)-3,4-dihydroquinazolin-2-yl)ethyl)amino)pyrimidine-5-carbonitrile] | 18 | 8 | 7300
C[C@H](Nc1nc(N)nc(C(F)F)c1C#N)c1nc2c(Cl)cc(F)cc2c(=O)n1-c1cn[nH]c1 [Compound 183, (S)-2-amino-4-((1-(8-chloro-6-fluoro-4-oxo-3-(1H-pyrazol-4-yl)-3,4-dihydroquinazolin-2-yl)ethyl)amino)-6-(difluoromethyl)pyrimidine-5-carbonitrile] | 25 | 9 | 840
N#Cc1c(N[C@H](c2nc3c(Cl)cc(F)cc3c(=O)n2-c2cn[nH]c2)C2CC2)nc(N)nc1C(F)F [Compound 184, (S)-2-amino-4-(((8-chloro-6-fluoro-4-oxo 3-(1H-pyrazol-4-yl)-3,4-dihydroquinazolin-2-yl)(cyclopropyl)methyl)amino)-6-(difluoromethyl)pyrimidine-5-carbonitrile] | 8 | 9 | 1500
C[C@H](Nc1nc(N)nc(C(F)F)c1C#N)c1nc2c(F)ccc(Cl)c2c(=O)n1-c1cc[nH]n1 [Compound 185, (S)-2-amino-4-((1-(5-chloro-8-fluoro-4-oxo-3-(1H-pyrazol-3-yl)-3,4-dihydroquinazolin-2-yl)ethyl)amino)-6-(difluoromethyl)pyrimidine-5-carbonitrile] | 6 | 4 | 1300
C[C@H](Nc1nc(N)nc(N)c1Cl)c1nc2cccc(Cl)c2c(=O)n1-c1cc(N)[nH]n1 [Compound 199, (S)-3-(5-amino-1H-pyrazol-3-yl)-5-chloro-2-(1-((2,6-diamino-5-chloropyrimidin-4-yl)amino)ethyl)quinazolin-4(3H)-one] | 7 | 16 | 5400
